One assay relates to Human Whole Blood. In words: Cytokine release in human whole blood (ELISA). The conditions noted are these: TNF-alpha release; compounds tested at 10 μM; compared to 10 ng/ml LPS; 3-hour incubation. Format: cell-based. The method, then: The most readily available human system to test compound activity on monocytes/macrophages is in whole blood. Various concentrations of compounds of the invention were added as 10× stocks in 50 μl of Ca^++, Mg^++-free Hank's balanced salt solution (HBSS) followed by 50 μl of HBSS into 400 μl of heparinized whole blood obtained from normal volunteers (18-51 years old; 110-230 lb.) into the wells of plastic assay plates, for a total volume of 500 μl/well (final concentration of whole blood was 80%). After a 3-hour incubation with gentle shaking at 37° C. in a 5% CO2 atmosphere, the assay plates were centrifuged at 1000×g for 10 min. at 4° C. and plasma was drawn off and frozen at −80° C. Plasma samples were analyzed for TNF-alpha, IL-10, and IL-12 by ELISA (Genzyme Corp., Cambridge, Mass.). Each assay point was tested in triplicate.
This stimulatory activity can be compared to that of 10 ng/ml endotoxin (or LPS) present in similar incubations in the same assay.
(In an ELISA, binding on a coated surface is turned into a signal by an enzyme label.)
For `CCCCCCCCCCCCCC(=O)NC(COCC[C@@H](CCCCCCC)OC(=O)CCCCCCCCCCC)COP(=O)([O-])OCCNC(=O)NCCOP(=O)([O-])OCC(COCC[C@@H](CCCCCCC)OC(=O)CCCCCCCCCCC)NC(=O)CCCCCCCCCCCCC.[Na+].[Na+]` (some centres unmarked) [compound 119327], the “TNF-alpha release in whole blood at 10 μM compound (% of 10 ng/ml LPS response)” value (“TNF-alpha release … (% of 10 ng/ml LPS response)” for short) is 165 ± 33 (n = 3) % of LPS.
Same read-out and setting: next, `CCCCCC/C=C\CCCC(=O)O[C@H](CCCCCCC)CCOCC(COP(=O)([O-])OCCNC(=O)C(Cc1ccc(OCCNC(=O)OC(C)(C)C)cc1)C(=O)NCCOP(=O)([O-])OCC(COCC[C@@H](CCCCCCC)OC(=O)CCC/C=C\CCCCCC)NC(=O)CCCCCCCCCCCCC)NC(=O)CCCCCCCCCCCCC.[Na+].[Na+]` (some centres unmarked) [compound 119329]: 2 ± 2 (n = 2) % of LPS; `CCCCCC/C=C\CCCC(=O)O[C@H](CCCCCCC)CCOCC(COP(=O)([O-])OCCNC(=O)C(CCCCNC(=O)OC(C)(C)C)C(=O)NCCOP(=O)([O-])OCC(COCC[C@@H](CCCCCCC)OC(=O)CCC/C=C\CCCCCC)NC(=O)CCCCCCCCCCCCC)NC(=O)CCCCCCCCCCCCC.[Na+].[Na+]` (some centres unmarked) [compound 119521]: 103 % of LPS; `CCCCCC/C=C\CCCC(=O)O[C@H](CCCCCCC)CCOCC(COP(=O)([O-])OCCNC(=O)C(Cc1ccc(OCCN)cc1)C(=O)NCCOP(=O)([O-])OCC(COCC[C@@H](CCCCCCC)OC(=O)CCC/C=C\CCCCCC)NC(=O)CCCCCCCCCCCCC)NC(=O)CCCCCCCCCCCCC.[Na+].[Na+]` (some centres unmarked) [compound 119522]: 129 % of LPS.
As to `CCCCCC/C=C\CCCC(=O)O[C@H](CCCCCCC)CCOCC(COP(=O)([O-])OCCNC(=O)C(CCCCN)C(=O)NCCOP(=O)([O-])OCC(COCC[C@@H](CCCCCCC)OC(=O)CCC/C=C\CCCCCC)NC(=O)CCCCCCCCCCCCC)NC(=O)CCCCCCCCCCCCC.[Na+].[Na+]` (some centres unmarked) [compound 119523], the “TNF-alpha release … (% of 10 ng/ml LPS response)” value is 176 % of LPS.
Consider `CCCCCC/C=C\CCCC(=O)O[C@H](CCCCCCC)CCOCC(COP(=O)(O)OCCNC(=O)C(Cc1ccc(OCCNC(=O)CCCCC(=O)O)cc1)C(=O)NCCOP(=O)(O)OCC(COCC[C@@H](CCCCCCC)OC(=O)CCC/C=C\CCCCCC)NC(=O)CCCCCCCCCCCCC)NC(=O)CCCCCCCCCCCCC` (some centres unmarked) [compound 803045], for which the “TNF-alpha release … (% of 10 ng/ml LPS response)” value is reported as 65 % of LPS.
The same measure, in the same setting: to `CCCCCCCCCCCCCC(=O)NC(COCC[C@@H](CCCCCCC)OC(=O)CCCCCCCCCCC)COP(=O)([O-])OCCNC(=O)CC(=O)NCCOP(=O)([O-])OCC(COCC[C@@H](CCCCCCC)OC(=O)CCCCCCCCCCC)NC(=O)CCCCCCCCCCCCC.[Na+].[Na+]` (some centres unmarked) [compound 803056] belongs 151 ± 42 % of LPS.
Still for that read-out and setting: next, `CCCCCCCCCCCCCC(=O)O[C@@H](COCC[C@@H](CCCCCCC)OC(=O)CCCCCCCCCCC)COP(=O)([O-])OCCNC(=O)CC(=O)NCCOP(=O)([O-])OC[C@H](COCC[C@@H](CCCCCCC)OC(=O)CCCCCCCCCCC)OC(=O)CCCCCCCCCCCCC.[Na+].[Na+]` [compound 803059]: 2 % of LPS; `CCCCCCCCCCCCCC(=O)O[C@@H](COCC[C@@H](CCCCCCC)OC(=O)CCCCCCCCCCC)COP(=O)([O-])OCCNC(=O)NCCOP(=O)([O-])OC[C@H](COCC[C@@H](CCCCCCC)OC(=O)CCCCCCCCCCC)OC(=O)CCCCCCCCCCCCC.[Na+].[Na+]` [compound 803592]: 15 % of LPS.

The assay is the same for the next values; noted with them: whole blood; (576-021) + EtOH; read-out: WB ED50 vs LPS@ 10 ng/ml.
`CCCCCCCCCCCCCCN[C@@H](COCC[C@@H](CCCCCCC)OC(=O)CCCCCCCCCCC)COP(=O)(O)OCCNC(=O)NCCOP(=O)(O)OC[C@H](COCC[C@@H](CCCCCCC)OC(=O)CCCCCCCCCCC)NCCCCCCCCCCCCCC` [compound 804252]: the EC50 is 400 nM.

The assay is the same for the next values; noted with them: whole blood; vs. % of LPS at 10 ng/ml; read-out: WB ED50 vs LPS@ 10 ng/ml.
As to `CCCCCCCCCCCCCC(=O)NC(COCC[C@@H](CCCCCCC)OC(=O)CCCCCCCCCCC)COP(=O)([O-])OCCNC(=O)NCCOP(=O)([O-])OCC(COCC[C@@H](CCCCCCC)OC(=O)CCCCCCCCCCC)NC(=O)CCCCCCCCCCCCC.[Na+].[Na+]` (some centres unmarked) [compound 119327], the EC50 amounted to 15 nM.
As for `CCCCCCCCCCCCCC(=O)O[C@@H](COCC[C@@H](CCCCCCC)OC(=O)CCCCCCCCCCC)COP(=O)([O-])OCCNC(=O)CC(=O)NCCOP(=O)([O-])OC[C@H](COCC[C@@H](CCCCCCC)OC(=O)CCCCCCCCCCC)OC(=O)CCCCCCCCCCCCC.[Na+].[Na+]` [compound 803059], the EC50 was found to be 890 nM.
The same measure, in the same setting: to `CCCCCCCCCCCCCC(=O)N[C@H](COCC[C@@H](CCCCCCC)OC(=O)CCCCCCCCCCC)COP(=O)(O)OCCNC(=O)CC(=O)NCCOP(=O)(O)OC[C@H](COCC[C@@H](CCCCCCC)OC(=O)CCCCCCCCCCC)NC(=O)CCCCCCCCCCCCC` [compound 803731] belongs greater than 10000 nM.
Still for that read-out and setting: to `CCCCCCCCCCCCCC(=O)N[C@H](COCC[C@@H](CCCCCCC)OC(=O)CCCCCCCCCCC)COP(=O)(O)OCCNC(=O)CC(=O)NCCOP(=O)(O)OC[C@H](COCC[C@@H](CCCCCCC)OC(=O)CCCCCCCCCCC)NC(=O)CCCCCCCCCCCCC` [compound 803733] belongs 700 nM; to `CCCCCCCCCCCCCC(=O)N[C@H](COCC[C@@H](CCCCCCC)OC(=O)CCCCCCCCCCC)COP(=O)(O)OCCNC(=O)NCCOP(=O)(O)OC[C@H](COCC[C@@H](CCCCCCC)OC(=O)CCCCCCCCCCC)NC(=O)CCCCCCCCCCCCC` [compound 803789], 100 nM.
Still for that read-out and setting: next, `CCCCCC/C=C\CCCC(=O)O[C@H](CCCCCCC)CCOC[C@@H](COP(=O)(O)OCCNC(=O)CC(=O)NCCOP(=O)(O)OC[C@H](COCC[C@@H](CCCCCCC)OC(=O)CCC/C=C\CCCCCC)NC(=O)CC(=O)CCCCCCCCCCC)NC(=O)CC(=O)CCCCCCCCCCC` [compound 804061]: 2500 nM; `CCCCCCCCCCCC(=O)CC(=O)N[C@H](COCC[C@@H](CCCCCCC)OC(=O)CCCCCCCCCCC)COP(=O)(O)OCCNC(=O)NCCOP(=O)(O)OC[C@H](COCC[C@@H](CCCCCCC)OC(=O)CCCCCCCCCCC)NC(=O)CC(=O)CCCCCCCCCCC` [compound 804097]: 300 nM; `CCCCCCCCCCCCCC(=O)N[C@H](COCC[C@H](CCCCCCC)CCCCCCCCCCCC)COP(=O)(O)OCCNC(=O)NCCOP(=O)(O)OC[C@@H](COCC[C@H](CCCCCCC)CCCCCCCCCCCC)NC(=O)CCCCCCCCCCCCC` [compound 804121]: 460 nM.
Turning to `CCCCCCCCCCCCCC(=O)N[C@H](COCC[C@H](CCCCCCC)CCCCCCCCCCCC)COP(=O)(O)OCCNC(=O)NCCOP(=O)(O)OC[C@@H](COCC[C@H](CCCCCCC)CCCCCCCCCCCC)NC(=O)CCCCCCCCCCCCC` [compound 804130], the EC50 turned out to be 660 nM.
The same measure, in the same setting: next, `CCCCCCCCCCCC(=O)NCC(=O)N[C@H](COCC[C@@H](CCCCCCC)OC(=O)CCCCCCCCCCC)COP(=O)(O)OCCNC(=O)NCCOP(=O)(O)OC[C@@H](COCC[C@@H](CCCCCCC)OC(=O)CCCCCCCCCCC)NC(=O)CNC(=O)CCCCCCCCCCC` [compound 804221]: 2200 nM; `CCCCCCCCCCCCCC(=O)N[C@H](COCC[C@H](CCCCCCC)NC(=O)CCCCCCCCCCC)COP(=O)(O)OCCNC(=O)NCCOP(=O)(O)OC[C@@H](COCC[C@H](CCCCCCC)NC(=O)CCCCCCCCCCC)NC(=O)CCCCCCCCCCCCC` [compound 804253]: greater than 10000 nM.
On the same count and under the same terms, next, `CCCCCCCCCCCCCCN[C@H](COCC[C@@H](CCCCCCC)OC(=O)CCCCCCCCCCC)COP(=O)(O)OCCNC(=O)NCCOP(=O)(O)OC[C@@H](COCC[C@@H](CCCCCCC)OC(=O)CCCCCCCCCCC)NCCCCCCCCCCCCCC` [compound 804281]: 450 nM.
Same read-out and setting: to `CCCCCCCCCCCCC(O)C(=O)N[C@H](COCC[C@@H](CCCCCCC)OC(=O)CCCCCCCCCCC)COP(=O)(O)OCCNC(=O)NCCOP(=O)(O)OC[C@@H](COCC[C@@H](CCCCCCC)OC(=O)CCCCCCCCCCC)NC(=O)C(O)CCCCCCCCCCCC` (some centres unmarked) [compound 804313] belongs 14 nM.

(Values after US7915238B2, “Immunomodulatory compounds and methods of use thereof” (Eisai R & D Management Co., Ltd., priority 1999, dated 2011).)
